B1: OVA: ovalbumin labeled with IrDye 800CW-NHS ester infrared fluorescent dye (conjugate, UniProt P01012 2-386, looked up)
Ovalbumin: GSIGAASMEFCFDVFKELKVHHANENIFYCPIAIMSALAMVYLGAKDSTRTQINKVVRFDKLPGFGDSIEAQCGTSVNVHSSLRDILNQITKPNDVYSFSLASRLYAEERYPILPEYLQCVKELYRGGLEPINFQTAADQARELINSWVESQTNGIIRNVLQPSSVDSQTAMVLVNAIVFKGLWEKAFKDEDTQAMPFRVTEQESKPVQMMYQIGLFRVASMASEKMKILELPFASGTMSMLVLLPDEVSGLEQLESIINFEKLTEWTSSNVMEERKIKVYLPRMKMEEKYNLTSVLMAMGITDVFSSSANLSGISSAESLKISQAVHAAHAEINEAGREVVGSAEAGVDAASVSEEFRADHPFLFCIKHIATNAVLFFGRCVSP
modifications: IRDye 800CW label
notes: ovalbumin labeled with IrDye 800CW-NHS ester infrared fluorescent dye

What was measured:
Mice immunized with KLH = test: Nerve block: antigen signal in sciatic lymph node after bupivacaine; format: in vivo; settings: 25 μl bupivacaine 0.375% at sciatic and femoral nerves before KLH-800CW in hind paw, imaged after one hour, mean±SEM, saline control 31.45±3.759, p<0.05
Protocol: In situ Antigen Imaging. 20 μl of 100 μg/ml labeled antigen was injected subcutaneously into the dorsum of the hind paw with an insulin syringe. After the predetermined time, the animal was euthanized using carbon dioxide, the skin over the area of interest was removed, and the animal was placed in a supine position in an Odyssey infrared imager. To image lymph node antigen content, sciatic and popliteal lymph nodes were surgically removed and placed into black, clear-bottomed 96-well plates filled with T-per (Thermo Scientific). These plates were imaged on the Odyssey imager. Immunization. Unlabeled antigen (100 μg) and 50% Imject alum (Thermo Scientific) in 200 μl 0.9% saline was injected intraperitoneally. Two weeks later, animals were injected again with the same solution as a booster. Two weeks after the booster injection, animals were used for experiments. Control animals received injections of 50% alum in saline. Nerve Block. Mice were immunized with 100 μg antigen and 50% Imject alum in 200 μl saline injected intraperitoneally twice, two weeks apart. Two weeks after the second injections, 25 μl bupivacaine (0.375%, APP Pharmaceuticals) or 0.9% saline was injected at the sciatic nerve and the femoral nerve of the hind leg. 20 minutes after the initial injection, animals were injected with labeled antigen in the dorsum of the hind paw. […]

Naïve Balb/c mice = test: Passive immunization: labeled antigen accumulation in sciatic lymph nodes; format: in vivo; settings: naïve mice given rabbit polyclonal anti-OVA antibodies i.p.; 24 hours later 800CW-labeled antigen s.c. in dorsum of hind paw; imaged after one hour; mean±SEM
Protocol: In situ Antigen Imaging. 20 μl of 100 μg/ml labeled antigen was injected subcutaneously into the dorsum of the hind paw with an insulin syringe. After the predetermined time, the animal was euthanized using carbon dioxide, the skin over the area of interest was removed, and the animal was placed in a supine position in an Odyssey infrared imager. To image lymph node antigen content, sciatic and popliteal lymph nodes were surgically removed and placed into black, clear-bottomed 96-well plates filled with T-per (Thermo Scientific). These plates were imaged on the Odyssey imager.
Passive Immunization. Naïve Balb/c mice were injected intraperitoneally with 100 μg rabbit polyclonal anti-ovalbumin antibody (Millipore). After 24 hours, mice were injected with OVA-800CW or KLH-800CW subcutaneously in the dorsum of the hind paw. After one hour, mice were euthanized and imaged.

Molecule | antigen signal in the sciatic lymph node (KLH-800CW fluorescence) (Mice immunized with KLH) | accumulation of labeled antigen in the sciatic lymph nodes (fluorescence signal) (Naïve Balb/c mice)
CCCCN1CCCCC1C(=O)Nc1c(C)cccc1C (centres unmarked) [bupivacaine] | 45.65±5.350 | 
B1 |  | 6.483±1.461

Source: patent US10926086B2, “Lymphatic system neuromodulation and uses thereof” (THE FEINSTEIN INSTITUTES FOR MEDICAL RESEARCH, priority 2016, dated 2021)
